The structures appear in SMILES notation.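 Protocol summary: plate cells (96-well), add compound at 5 concentrations, incubate 48 h, interpolate endpoints linearly. Here, GI50 denotes the concentration required for 50% inhibition of growth. TGI: total growth inhibition.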

Test systems include SN12C renal; NCI-H226 lung; OVCAR-4 ovarian; U251 CNS; RPMI-8226 leukemia; NCI-H23 lung; SK-MEL-28 melanoma; SNB-19 CNS; HT29 colon; M14 melanoma.
Experiment in all cases: NCI anticancer screen, dose series, 48 h

On to `CCCS(=O)(=O)Nc1cccc(Nc2ncnc3cc(NC(=O)CCl)ccc23)c1Cl`, for which the GI50 in the experiment on SN12C renal was 1060 nM; in the experiment on NCI-H226 lung, 3.31 µM; in the experiment on OVCAR-4 ovarian it was 2950 nM; in the experiment on U251 CNS, 516 nM; in the experiment with RPMI-8226 leukemia it was 3230 nM; in the experiment on NCI-H23 lung it was 1260 nM. Further, the GI50 in the experiment on SK-MEL-28 melanoma was 2450 nM; in the experiment on SNB-19 CNS, 1350 nM; in the experiment with HT29 colon, 1100 nM; in the experiment with M14 melanoma, 1110 nM. Moreover, the TGI came out at 3.85 µM with SN12C renal; 11.9 µM in the experiment with NCI-H226 lung; 7.76 µM with OVCAR-4 ovarian; 1160 nM in the experiment with U251 CNS; 8.56 µM with RPMI-8226 leukemia; 5.25 µM in the experiment with NCI-H23 lung. The TGI in the experiment with SK-MEL-28 melanoma was found to be 9.67 µM; with SNB-19 CNS it was 4.58 µM; in the experiment on HT29 colon, 4.74 µM; in the experiment with M14 melanoma, 5.16 µM.
Regarding `COc1ccc(C2CC(c3ccc(OC)cc3O)=NN2c2ccc(S(N)(=O)=O)cc2)cc1` (centres undefined), the GI50 with SN12C renal was 16700 nM; with NCI-H226 lung, 11.7 µM; in the experiment on OVCAR-4 ovarian, 30800 nM; in the experiment on U251 CNS, 6420 nM; with RPMI-8226 leukemia, 4670 nM; with NCI-H23 lung it was 20500 nM. The GI50 was 15000 nM with SK-MEL-28 melanoma, 27300 nM in the experiment with SNB-19 CNS, 11100 nM in the experiment on HT29 colon and 4540 nM with M14 melanoma. Moreover, the TGI in the experiment with SN12C renal was above 100 µM; in the experiment on NCI-H226 lung it was above 100 µM; in the experiment on OVCAR-4 ovarian it was above 100 µM; in the experiment with U251 CNS, above 100000 nM; in the experiment on RPMI-8226 leukemia, above 100 µM; in the experiment on NCI-H23 lung, above 100 µM. Further, the TGI in the experiment with SK-MEL-28 melanoma is above 100 µM; with SNB-19 CNS, above 100 µM; in the experiment on HT29 colon, above 100 µM; with M14 melanoma, 25.9 µM.
For `O=C1/C(=C/c2ccc(F)cc2)CN(C(=O)C(Cl)Cl)C/C1=C\c1ccc(F)cc1`, the GI50 in the experiment with SN12C renal was 222 nM; with NCI-H226 lung, 4.22 µM; in the experiment with OVCAR-4 ovarian, 321 nM; with U251 CNS, 106 nM; in the experiment with RPMI-8226 leukemia, 34.1 nM; in the experiment on NCI-H23 lung, 259 nM. For the same molecule, the GI50 with SK-MEL-28 melanoma was 257 nM; with SNB-19 CNS it was 287 nM; in the experiment with HT29 colon, 181 nM; with M14 melanoma, 249 nM. In addition, the TGI came to 0.556 µM with SN12C renal; 22.5 µM with NCI-H226 lung; 1.15 µM in the experiment on OVCAR-4 ovarian; 335 nM in the experiment on U251 CNS; 0.324 µM with RPMI-8226 leukemia; 0.774 µM in the experiment on NCI-H23 lung. The TGI in the experiment on SK-MEL-28 melanoma worked out at 0.666 µM; in the experiment on SNB-19 CNS, 1.25 µM; with M14 melanoma, 0.758 µM.
Consider `N#CC1(N2CCCC2)CCC2(CC1)OCCO2`, for which the TGI with SN12C renal was above 100 µM; in the experiment with NCI-H226 lung it was above 100 µM; in the experiment on OVCAR-4 ovarian, above 100 µM; with U251 CNS, above 100000 nM; with RPMI-8226 leukemia, above 100 µM; in the experiment on NCI-H23 lung, above 100 µM. Moreover, the TGI in the experiment with SK-MEL-28 melanoma, with SNB-19 CNS, with HT29 colon and in the experiment with M14 melanoma was above 100 µM in each case.
Take `CCOC(=O)c1c2c(n3ccc(NC(=O)CCN4CCCCC4)cc13)C(=O)c1ncccc1C2=O`: the GI50 with SN12C renal was 111 nM; with NCI-H226 lung it was 4.32 µM; in the experiment with OVCAR-4 ovarian it was 1420 nM; in the experiment with U251 CNS it was 1090 nM; with RPMI-8226 leukemia, 1410 nM; with NCI-H23 lung, 36.9 nM. Moreover, the GI50 was 668 nM with SK-MEL-28 melanoma, 1060 nM in the experiment with SNB-19 CNS, 1300 nM with HT29 colon and 170 nM with M14 melanoma. Further, the TGI in the experiment with SN12C renal is 2.33 µM; with NCI-H226 lung, 11.3 µM; in the experiment with OVCAR-4 ovarian, 3.56 µM; in the experiment with U251 CNS, 2470 nM; in the experiment on RPMI-8226 leukemia it was 4.49 µM; in the experiment on NCI-H23 lung it was 2.03 µM. Further, the TGI in the experiment with SK-MEL-28 melanoma amounted to 2.38 µM; in the experiment on SNB-19 CNS, 3.21 µM; with HT29 colon it was 3.1 µM; in the experiment on M14 melanoma it was 1.76 µM.
On to `CCCCCCCC(=O)OCC1OC(n2cc(F)c(=O)[nH]c2=O)C(N)C(O)C1O` (centres undefined), for which the TGI in the experiment on SN12C renal was above 100 µM; in the experiment on NCI-H226 lung, above 100 µM; in the experiment on OVCAR-4 ovarian, above 100 µM; in the experiment with U251 CNS, above 100000 nM; in the experiment on RPMI-8226 leukemia, above 100 µM; in the experiment on NCI-H23 lung, above 100 µM. Besides, the TGI in the experiment with SK-MEL-28 melanoma, with SNB-19 CNS, with HT29 colon and with M14 melanoma was above 100 µM throughout.
`O=C(c1ccc2ccccc2c1)c1c(C(F)(F)F)n([O-])c2cc(C(F)(F)F)ccc2[n+]1=O`: the GI50 is 1680 nM in the experiment with SN12C renal; 1.49 µM in the experiment on NCI-H226 lung; 1220 nM with OVCAR-4 ovarian; 1750 nM in the experiment with U251 CNS; 1250 nM in the experiment with RPMI-8226 leukemia; 2410 nM with NCI-H23 lung. For the same molecule, the GI50 with SK-MEL-28 melanoma is 1740 nM; in the experiment with SNB-19 CNS, 1880 nM; in the experiment on HT29 colon, 1740 nM; in the experiment on M14 melanoma, 1650 nM. The TGI with SN12C renal was found to be 3.81 µM; in the experiment on NCI-H226 lung, 3.5 µM; in the experiment on OVCAR-4 ovarian, 3.51 µM; with U251 CNS, 3290 nM; in the experiment on RPMI-8226 leukemia, 3.37 µM; in the experiment with NCI-H23 lung, 5.87 µM. Also, the TGI with SK-MEL-28 melanoma is 3.38 µM; in the experiment on SNB-19 CNS it was 3.43 µM; with HT29 colon, 3.46 µM; in the experiment with M14 melanoma, 3.1 µM.
As for `COC(=O)/C(=N\NC(N)=O)C(C#N)c1ccccc1` (centres undefined), the TGI was above 100 µM in the experiment on SN12C renal; above 100 µM in the experiment with NCI-H226 lung; above 100 µM with OVCAR-4 ovarian; above 100000 nM with U251 CNS; above 100 µM with RPMI-8226 leukemia; above 100 µM with NCI-H23 lung. Moreover, the TGI in the experiment with SK-MEL-28 melanoma, in the experiment with SNB-19 CNS, in the experiment with HT29 colon and in the experiment on M14 melanoma was above 100 µM throughout.

These data come from PubChem BioAssay (NCI).
